From PubChem BioAssay (NCI)
“And” between values parts separate entries of the source, which are not always exact repeats. Equal values may be shown once.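 Briefly, cells in 96-well plates were exposed to five compound concentrations for 48 h, and endpoints were estimated by linear interpolation. GI50 is the concentration that inhibits growth by half. TGI marks complete inhibition of growth.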

Tests used:
Assay in all cases: DTP human tumour cell line panel, 48 h
786-0 renal = tested on: 786-0 renal
A549 NSCLC = tested on: A549 NSCLC
HCT-15 colon = tested on: HCT-15 colon
KM12 colon = tested on: KM12 colon
NCI-H23 lung = tested on: NCI-H23 lung
OVCAR-3 ovarian = tested on: OVCAR-3 ovarian
PC-3 prostate = tested on: PC-3 prostate
SW-620 colon = tested on: SW-620 colon
TK-10 renal = tested on: TK-10 renal
U251 CNS = tested on: U251 CNS

| SMILES | GI50 (786-0 renal) [µM] | TGI (786-0 renal) | GI50 (A549 NSCLC) | TGI (A549 NSCLC) | GI50 (HCT-15 colon) | TGI (HCT-15 colon) | GI50 (KM12 colon) | TGI (KM12 colon) | GI50 (NCI-H23 lung) [µM] | TGI (NCI-H23 lung) | GI50 (OVCAR-3 ovarian) | TGI (OVCAR-3 ovarian) | GI50 (PC-3 prostate) | TGI (PC-3 prostate) | GI50 (SW-620 colon) [µM] | TGI (SW-620 colon) | GI50 (TK-10 renal) | TGI (TK-10 renal) | GI50 (U251 CNS) | TGI (U251 CNS) |
| --- | --- | --- | --- | --- | --- | --- | --- | --- | --- | --- | --- | --- | --- | --- | --- | --- | --- | --- | --- | --- |
| CN1CCN(c2nc(-c3csc(-c4cccs4)n3)cc3ccccc23)CC1 | 1.64 | 3.15 µM | 1.76 µM | 3.55 µM | 1.63 µM | 3.15 µM | 1.84 µM | 3.39 µM | 1.93 | 3.92 µM | 1.84 µM | 3.64 µM | 1.98 µM | 4.48 µM | 1.75 | 3.25 µM | 1.98 µM | 3.65 µM | 1.66 µM | 3.29 µM |
| CCN1C(=NCCO)NS(=O)(=O)c2ccccc21 |  | > 100 µM |  | > 100 µM |  | > 100 µM |  | > 100 µM |  | > 100 µM |  | > 100 µM |  | > 100 µM |  | > 100 µM |  | > 100 µM |  | > 100 µM |
| CN(C)c1cccc(F)c1C(=O)NC(=O)Nc1ccc(Cl)cc1 |  | > 100 µM |  | > 100 µM |  | > 31.5 µM |  | > 100 µM |  | > 100 µM |  | > 100 µM |  | > 100 µM |  | > 100 µM |  | > 100 µM |  | > 100 µM |
| COCCOCCOCc1n(Cc2ccc3ccccc3n2)c2ccccc2[n+]1Cc1ccc2ccccc2n1 | 3.74 | 15.5 µM | 3.21 µM | 69.5 µM | 15.8 µM | 52 µM | 0.502 µM | 6.13 µM | 0.657 | 12.2 µM | 0.479 µM | 13.8 µM | 0.591 µM | 11.7 µM | 2.03 | 17.2 µM | 4.02 µM | 16.2 µM | 0.354 µM | 12.9 µM |
| NC1(Cc2ccc(Cl)cc2)CCN(c2ncnc3[nH]ccc23)CC1 | 2.68 | 17 µM | 5.02 µM | 21.6 µM | 5.64 µM | 23.9 µM | 3.02 µM | 13.9 µM | 4.55 | 21 µM | 11.7 µM | 25 µM | 2.99 µM | 23.5 µM | 4.59 | 20.4 µM | 3.17 µM | 14.8 µM | 3.73 µM | 17.5 µM |
| O=C(CC1C=Cc2ccccc2N1C(=O)c1ccccc1)c1ccccc1 (configuration not stated) |  | > 100 µM |  | > 100 µM |  | > 100 µM |  | 61.8 µM |  | > 100 µM |  | 34.7 µM |  | 96.6 µM |  | > 100 µM |  | > 100 µM |  | 65.1 µM |
| COc1cc2oc3c(c(=O)c2c(O)c1/C=C/C(C)C)C(C=C(C)C)Oc1cc(O)ccc1-3 (configuration not stated) |  | 30.6 µM |  | 28.8 µM |  | 31.7 µM |  | 34.5 µM |  | 30.5 µM |  | 28.4 µM |  | 29.4 µM |  | 32.3 µM |  | 31.5 µM |  | 31.1 µM |
| CCCCOC1OC(COC(=O)C(C)C)C(OC(=O)C(C)C)C(O)C1OC1OC(C)C(OC(=O)CCC)C(OC(=O)C(C)C)C1O (configuration not stated) | 14 | 26.9 µM | 13.6 µM | 26.5 µM | 14.2 µM | 27.3 µM | 15.1 µM | 29 µM | 14 | 27 µM | 11.9 µM | 24.2 µM | 8.35 µM | 20.7 µM | 14.7 | 27.8 µM | 13.2 µM | 25.9 µM | 13.6 µM | 26.4 µM |
| C/C(=N\NC(=S)N1CCCCCC1)c1cccc2cccnc12 |  | > 86.9 µM |  | > 100 µM |  | > 21.9 µM |  | > 87.4 µM |  | 15.5 µM |  | 0.567 µM |  | > 100 µM |  | > 100 µM |  | > 100 µM |  | > 29.2 µM |
| CN(CCCCCl)P(=O)(OCc1ccc([N+](=O)[O-])o1)OCC1OC(n2cnc([N+](=O)[O-])c2N)C(O)C1O (configuration not stated) | > 100 | > 100 µM | > 100 µM | > 100 µM | > 100 µM | > 100 µM | 90.7 µM | > 100 µM | > 100 | > 100 µM | > 100 µM | > 100 µM | > 100 µM | > 100 µM | > 100 | > 100 µM | > 100 µM | > 100 µM | > 100 µM | > 100 µM |
| Cc1cccc2c3c(sc12)C(c1ccc(F)cc1)C(C#N)=C(N)O3 (configuration not stated) | 0.297 | 14.2 µM | 0.135 µM | 14.1 µM | 0.0447 µM | 10.7 µM | 0.064 µM | 11.1 µM | 0.127 | 12 µM | 0.0401 µM | 1.85 µM | 0.045 µM | 11.3 µM | 0.044 | 14.2 µM | 5.51 µM | 23 µM | 0.13 µM | 12.6 µM |
| NC(=O)c1sc(-n2cnc3cc(C(F)(F)F)ccc32)cc1OCc1ccccc1Br | 18.4 | > 25 µM | > 25 µM | > 25 µM | > 25 µM | > 25 µM | > 19.9 µM | > 25 µM | > 25 | > 25 µM | > 16.7 µM | > 25 µM | > 20.4 µM | > 25 µM | > 17.9 | > 25 µM | > 25 µM | > 25 µM | > 15.8 µM | > 25 µM |
| CCSC[C@@H]1C[C@](O)(c2ccc(F)cc2)[C@@H](c2ccc(F)cc2)O1 | 16.4 | 31.1 µM | 18.7 µM | 44 µM | 17.4 µM | 33 µM | 19.4 µM | 41.3 µM | 19.1 | 46.6 µM | 19.2 µM | 37.1 µM | 15.8 µM | 30 µM | 16.7 | 31.4 µM | 19.2 µM | 34.5 µM | 17.8 µM | 31.7 µM |
| CCCCNc1ccc(Nc2ccccc2)cc1 | 10.4 | 74.6 µM | 4.38 µM | 52.9 µM | 21.3 µM | > 100 µM | 4.02 µM | 32.6 µM | 3.15 | 43 µM | 3.79 µM | > 100 µM | 3.15 µM | 38.2 µM | 5.06 | > 100 µM | 4.27 µM | 56.3 µM | 3.89 µM | > 100 µM |
| COc1ccc2c(c1)-c1nn(CCCN(C)C)c3ccc([N+](=O)[O-])c(c13)N2 |  | 7.68 µM and 12.2 µM | 0.164 µM and 0.368 µM | 2.51 µM and 2.28 µM | 0.142 µM and 0.541 µM | 2.38 µM and 13.5 µM | 0.194 µM and 0.43 µM | 2.54 µM and 2.58 µM |  | 2.08 µM and 2.3 µM | 0.339 µM and 1.11 µM | 3.95 µM and 7.29 µM | 0.112 µM and 0.343 µM | 2.75 µM and 3.93 µM | 0.0633 | 4.69 µM and 3.65 µM | 0.345 µM and 0.809 µM | 4.69 µM and 7.86 µM | 0.178 µM and 0.502 µM | 4.94 µM and 14.7 µM |
| CC(=O)O[C@H]1CC[C@@]2(C)C(=C/C(=N/OCCN3CCCC3)[C@H]3[C@@H]4CC[C@H](OC(C)=O)[C@@]4(C)CC[C@@H]32)C1 | 30.8 | > 100 µM | 63.3 µM | > 100 µM | 20.1 µM | 45 µM | 40.7 µM | > 100 µM | > 100 | > 100 µM | > 100 µM | > 100 µM | 40.5 µM | > 100 µM | 24.1 | 59.8 µM | 90.4 µM | > 100 µM | 67.1 µM | > 100 µM |
| O=C1CC/C(=C/COc2cc(=O)oc3ccccc23)O1 | 2.54 | 15.9 µM | 16.4 µM | 30.8 µM | 5.28 µM | 18.4 µM | 7.14 µM | 25.1 µM | 12.8 | 26.8 µM | 5.41 µM | 21.1 µM | 5.23 µM | 23.9 µM | 4.37 | 18.2 µM | 2.73 µM | 10.5 µM | 11 µM | 23.4 µM |
| CN(C)c1ccc(/C=N/S(=O)(=O)c2ccc(-n3c(-c4ccccc4)nc4c(Br)cc(Br)cc4c3=O)cc2)cc1 | 55.7 | > 100 µM | 34 µM | > 100 µM | 51.1 µM | > 100 µM | 32.3 µM | > 100 µM | 37.7 | 92.6 µM | 34.2 µM | > 100 µM | 35.3 µM | > 88 µM | 46.2 | > 100 µM | 45.8 µM | > 100 µM | 40.7 µM | > 100 µM |
| C[C@@H](CO)NC(=O)c1cc(-c2ccc(Cl)cc2)nn(-c2cnn(C)c2)c1=O | 23.9 | > 100 µM | 20.3 µM | 67.7 µM | 17.2 µM | > 100 µM | 59.9 µM | > 100 µM | 27.9 | > 100 µM | 45.5 µM | > 100 µM | 27.8 µM | > 100 µM | 22.9 | > 100 µM | 3.12 µM | 47 µM | 42.9 µM | > 100 µM |
| CCc1nc(N)nc(N)c1-c1ccc(Cl)c(N=[N+]=[N-])c1 |  | > 77.8 µM and 45.2 µM | 0.58 µM and 1.68 µM | > 100 µM | 0.791 µM and 2.06 µM | > 100 µM |  | 73.1 µM and > 100 µM |  | > 93.8 µM and 80.9 µM |  | 64.6 µM and 80 µM | 12.6 µM and 2.06 µM | > 100 µM |  | > 100 µM | 8.78 µM and 29.3 µM | > 100 µM |  | > 100 µM |
